# Reference: patent US20100249064A1, “METHODS AND COMPOSITIONS FOR TREATING DISEASES AND CONDITIONS INVOLVING HIGHER MOLECULAR WEIGHT HYALURONAN” (University of Chicago, priority 2007, published 2010)
# Entries after “also recorded” stand apart in the source; their conditions may differ.
# Columns and labels:
# Human pulmonary EC = assay: Atomic Force Microscopy of EC morphology and lipid rafts; type: cell-based; details: 100 nM high MW HA
# Description: Atomic Force Microscopy. The protocols/procedures for AFM analysis of 50 to 100 nm pits (CEM, lipid rafts), EC height and force measurements were previously described in detail (Dvorak, 2003, Reich et al., 2001, Henderson et al., 2004, Milhiet et. al., 2004, Miklaszewska, 2004, Lucius, 2003). EC treated with various siRNAs or treated with MβCD with or without 100 nM high MW HA (0, 15, 30, 60 min.) were fixed in 4% glutaraldehyde and analyzed in tapping mode on a DI multimode AFM (Digital Instruments, Santa Barbara, Calif.) using a V-shaped oxide-sharpened silicon nitride cantilever with an optical scanning speed of ˜1.0 Hz to obtain a surface topology map which was quantitated and spatially defined using Metamorph™ software. For live cells, GFP and GFP-caveolin-1 expressing EC were treated with or without 100 nM high MW HA in a DI Bioscope cell chamber (Digital Instruments, Santa Barbara, Calif.) were exposed to tapping mode AFM with concurrent fluorescence scanning and images were obtained using a C5985 chilled CCD camera (Hamamatsu Photonics Systems, Bridgewater, N.J.).
# C1INH = C1INH expression in EC (immunoblot); type: cell-based, human; details: 100 nM HMW-HA
# Description: Determination of the role of HMW-HA/HABP2/C1INH interactions in regulating angiogenesis in vitro. Human pulmonary EC (Cambrex), grown in EBM-2 complete medium (Cambrex) at 37° C. in a humidified atmosphere of 5% CO2, 95% air, with passages 6-10 used for experimentation will be treated with or without 100 nM HMW-HA and/or 100 nM VEGF in the presence or absence of HABP2 and/or C1INH overexpression vectors (Origene), exogenous purified recombinant HABP2 polyanion binding domain and/or C1INH (Novus Biologicals) and/or siRNA (scramble, HABP2 or C1INH). For HABP2 protease activity determination, media from HABP2 overexpressing EC (see above) was immunoprecipitated with anti-HABP2 antibody-conjugated Sepharose beads (Sigma). The immunobeads were then extensively washed in 50 mM Borate, pH=8.5 and protease activity was measured using the QuantiCleave™ Protease Assay Kit (Pierce). Briefly, the immunobeads were incubated with succinylated casein for one hour followed by development with TNBSA (2,4,6-trinitrobenzene sulfonic acid) and read at 450 nm.
# MARCKS and NHE1 = assay: LPS-induced phosphorylation of MARCKS and NHE1 (immunoprecipitation/immunoblot); type: cell-based, human; details: LPS 1 μg/ml, 4 hours, HMW-HA 100 nM or Y-27632 500 nM
# [1] = system: LPS-induced murine lung vascular permeability; assay: LPS-induced murine lung vascular permeability, bronchioalveolar lavage (BAL) protein and cytokines; type: in vivo, mouse; details: for LPS-induced pulmonary hyper-permeability (BAL protein concentration): wildtype C57BL/6J mice, LPS 2.5 mg/kg intratracheally, HMW-HA 1.5 mg/kg or HGF 50 μg/kg intravenously 4 hours after LPS, BAL at 24 hours
# Description: Animal Preparation and Treatment—Male C57BL/6J and CD44 knockout mice (8-10 weeks, Jackson Laboratories, Bar Harbor, Me.) were anesthetized with intraperitoneal ketamine (150 mg/kg) and acetylpromazine (15 mg/kg) according to approved protocols. LPS (2.5 mg/kg) or saline (control) were instilled intratracheally and four hours later, HGF (50 μg/kg) or saline control delivered intravenously through the internal jugular vein. The animals were allowed to recover for 24 h followed by bronchioalveolar lavage protein analysis and/or lung immunohistochemistry.
# Determination of Bronchioalveolar Lavage Protein Concentration—Bronchioalveolar lavage (BAL) was performed by an intratracheal injection of 1 cc of Hank's balanced salt solution followed by gentle aspiration. The recovered fluid was processed for protein concentration (BCA Protein Assay Kit; Pierce Chemical Co., Rockford, Ill.) as described (Su et al., 2004).
# Animals. Male C57BL/6J mice, CD44 knockout mice, Caveolin-1 knockout mice (8-10 weeks, Jackson Laboratories, Bar Harbor, Me.) were anesthetized with intraperitoneal ketamine (150 mg/kg) and acetylpromazine (15 mg/kg) according to approved protocols. LPS (2.5 mg/kg) or saline (control) were instilled intratracheally and four hours later, HMW-HA (1.5 mg/kg) or saline control delivered intravenously through the internal jugular vein. The animals were allowed to recover for 24 hours followed by bronchioalveolar lavage protein analysis and/or lung immunohistochemistry.
# Determination of protein concentration. Total protein concentration. TGF-alpha concentration. TGF-beta1 concentration. Bronchioalveolar lavage (BAL) was performed by an intratracheal injection of 1 cc of Hank's balanced salt solution followed by gentle aspiration. The recovered fluid was processed for protein concentration (BCA Protein Assay Kit; Pierce Chemical Co., Rockford, Ill.) or used to determine TNF-α and TGF-β1 concentrations using quantitative sandwich enzyme immunoassays (R & D Systems, Minneapolis, Minn.).
# (§1) Animal Preparation and Treatment. Male C57BL/6J, B6129N2, CD44^−/− or caveolin-1^−/− mice (8-10 weeks, Jackson Laboratories, Bar Harbor, Me.) were anesthetized with intraperitoneal ketamine (150 mg/kg) and acetylpromazine (15 mg/kg) before exposure of the right internal jugular vein via neck incision. LPS (2.5 mg/kg) or water (control) were instilled intratracheally. Four hours later, mice receive high MW HA (1.5 mg/kg) or water control through the internal jugular vein. The animals were allowed to recover for 24 hours after LPS before bronchioalveolar lavage protein and cytokine concentration and/or lung immunohistochemistry/immunoblot analysis (Peng et al., 2004).
# Determination of Bronchoavleolar Lavage Protein and Cytokine Concentration. Bronchioalveolar lavage (BAL) was performed by an intratracheal injection of 1 cc of Hank's balanced salt solution followed by gentle aspiration. The recovered fluid was processed for protein concentration (BCA Protein Assay Kit; Pierce Chemical Co., Rockford, Ill.) (Peng et. al., 2004). Cytokines (IL-6, TNFalpha) were measured using a Quantikine sandwich ELISA kit (R & D Systems).
# CD44 = CD44 expression in mouse lung homogenates (immunoblot); type: in vivo
# Description: as §1
# Immunoblot analysis of CD44 and Caveolin-1 expression in control, LPS- and HA-treated mouse lung homogenates. CD44 is highly likely to be important in lung disease as CD44−/− mice develop lung fibrosis, inflammatory cell recruitment and accumulation of hyaluronan fragments at sites of lung injury (Teder et al., 2002). […] Caveolin-1 can be differentially regulated in various models of acute lung injury (ALI). Monocrotaline-induced rodent pulmonary hypertension results in a loss of lung EC caveolin-1 expression (Mathew et al., 2004). In contrast, there is no change in pulmonary caveolin-1 expression in lipopolyscaaharide (LPS)-induced sepsis with lung injury (Garrean et al., 2006). […]
# [2] = wild type mice, LPS 2.5 mg/kg, HMW-HA 1.5 mg/kg i.v. after 4 hours
substance,measurement,setting,value
hyaluronan [HMW-HA],EC morphological changes (AFM),Human pulmonary EC,caused dramatic morphological changes including increased thickening of EC junctions
same,total number of lipid raft-like structures (AFM),Human pulmonary EC,did not change
same,C1INH expression in EC,C1INH,"increased the expression of the endogenous inhibitor of HABP2, C1INH"
same,LPS-induced phosphorylation of MARCKS and NHE1,MARCKS and NHE1,inhibit LPS-induced phosphorylation of MARCKS and NHE1
same,protective effect on LPS-induced pulmonary hyper-permeability (BAL) in knockout mice,"[1]; CD44 knockout (and, where stated, Caveolin-1 knockout) mice, same regimen",markedly attenuated in the CD44 knockout mouse; also recorded: did not protect from LPS-induced ALI in CD44 and Caveolin-1 knockout mice; also recorded: protection was blocked in the CD44 knockout mouse; also recorded: but not the CD44 knockout
same,TGF-alpha concentration in BAL fluids,[1]; [2],reduced the enhancing effect of LPS
same,TGF-beta1 concentration in BAL fluids,[1]; [2],reduced the enhancing effect of LPS
same,LPS-induced pulmonary hyper-permeability (BAL protein concentration),[1],pulmonary hyper-permeability was attenuated; also recorded: significant difference (p<0.05) between LPS and HMW-HA+LPS treatment in the wildtype
same,LPS-induced pulmonary hyper-permeability (BAL protein concentration),[1]; listed as HWM-HA,protected from LPS-induced vascular leakiness in vivo
same,LPS-induced pulmonary hyper-permeability (BAL protein concentration),[1]; listed as High MW hyaluronan,reduced the enhancing effect of LPS on BAL protein concentration
same,LPS-induced pulmonary hyper-permeability (BAL protein concentration),[1]; listed as high MW HA,attenuated the vascular hyper-permeability
same,LPS-induced CD44 upregulation in mouse lungs,"CD44; C57BL/6J mice, LPS challenged followed by HMW-HA",inhibited LPS-induced CD44 upregulation
same,CD44 expression in mouse lungs,CD44; HMW-HA alone,no effect on CD44 expression
